Results from patent publication US7579331B2, “Method of improved diuresis in individuals with impaired renal function” (Novacardia, Inc., priority 2004, dated 2009).
Like-named read-outs stand apart in the source and are kept apart here.

Key:
adenosine A1 receptors [1] = molecular target: T1, adenosine A1 receptors (Homo sapiens, UniProt P30542); details: BG 9719 relative to KW-3902
T1 sequence (P30542 1-326): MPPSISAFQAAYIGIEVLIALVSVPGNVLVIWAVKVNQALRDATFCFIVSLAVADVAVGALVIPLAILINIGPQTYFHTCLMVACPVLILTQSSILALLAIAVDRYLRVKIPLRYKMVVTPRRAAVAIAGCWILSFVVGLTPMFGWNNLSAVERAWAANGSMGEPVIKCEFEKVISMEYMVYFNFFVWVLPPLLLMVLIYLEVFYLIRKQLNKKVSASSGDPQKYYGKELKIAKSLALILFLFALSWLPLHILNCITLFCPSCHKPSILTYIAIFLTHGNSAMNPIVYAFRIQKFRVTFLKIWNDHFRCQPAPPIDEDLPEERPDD

adenosine A1 receptors [2] = molecular target: T1, adenosine A1 receptors; details: read-out: A1KI, cited from earlier work
[3] = reported by Ticho et al 2003; cited from earlier work
urine volume = details: equi-potent dose .3 mg/kg or 20 mg, Wolff et al 1998; cited from earlier work

## CCCn1c(=O)c2nc([C@H]3C[C@H]4C[C@@H]3[C@@H]3O[C@H]43)[nH]c2n(CCC)c1=O [BG 9719]
Adenosine A1 receptors [1]
  greater affinity for the A1 receptor than KW-3902: 60%
Adenosine A1 receptors [2]; adenosine A1 receptor
  Ki: 450 ± 40 pM
Adenosine A1 receptors [2]; repeated in the equi-potent dose table
  Ki: 450 ± 40 pM
[3]
  solubility: poor
  stability: poor
Urine volume
  % Urine volume increase over placebo, 3 hr: 33%
